Test results from patent US20240226000A9, “TRANSDERMAL PENETRANT FORMULATIONS FOR ADMINISTRATION OF MEDICAMENTS” (Dyve Biosciences, Inc., priority 2021, published 2024).
Structures can show the parent of a compound that is named as a salt. Where two headings read alike, the source gives them in different places.

Tests used:
in vivo = assay: in vivo
From the text: (§1) In this example, mice were transdernally treated with formulations of the present disclosure comprising essentially insoluble class 2 or class 4 molecules.

[1] = Solubility of actives in aqueous medium / percent solution
From the text: as §1

[2] = mouse, in vivo, topical or ocular

Compound | AUC(0-inf) (in vivo; [2]) [ng·h/mL] | Cmax (in vivo; [2]) [ng/mL] | Tmax (in vivo; [2]) [min] | bioavailability after transdermal delivery (in vivo; [2]) | half-life (in vivo; [2]) [min] | % Solution (Relative Dosing) [1] [%] | Estimated Active % in Solution [1] [%] | solubility in aqueous medium [1] [%] | AUC(0-t) (in vivo; [2]) [ng·h/mL] | bioavailability after transdermal delivery (in vivo; mice transdermally treated with a formulation comprising the molecule) | Estimated Active % in Solution ([1]; active in the transdermal formulation) [%]
CCCc1nn(C)c2c(=O)[nH]c(-c3cc(S(=O)(=O)N4CCN(C)CC4)ccc3OCC)nc12 [Sildenafil Citrate] | 9660 | 4390 | 30 | high or relatively high bioavailability | 56.4 | <1 | <1 | ≤ 1 |  |  | 
COc1ccc(-n2nc(C(N)=O)c3c2C(=O)N(c2ccc(N4CCCCC4=O)cc2)CC3)cc1 [apixaban] |  | 1880 | 30 | improved bioavailability |  |  | <1 |  | 3930 |  | 
CCOc1cc2ncc(C#N)c(Nc3ccc(OCc4ccccn4)c(Cl)c3)c2cc1NC(=O)/C=C/CN(C)C [Free Base Neratinib] |  |  |  |  |  |  |  |  |  | high or relatively high bioavailability | <1
CN1CCC[C@@H]1Cc1c[nH]c2ccc(CCS(=O)(=O)c3ccccc3)cc12 [Eletriptan] |  | 424 | 30 | high or relatively high bioavailability |  |  | <0.1 | ≤ 0.002 | 1800 |  | 
